Assay results taken from PubChem BioAssay AID330 (DTP/NCI, 2004).
Values joined by “and” are separate entries in the source; they are usually repeats but may differ in a detail not shown here. Equal entries are not always repeated. Toxic doses and inconclusive results are not listed. The calls were made as follows: active = survival T/C of 150% or more; inactive = T/C below 125% in these data.

System: P388 leukemia ip, CD2F1 mice, survival T/C
Assay: NCI In Vivo Anticancer Drug Screen. Data for tumor model P388 Leukemia (intraperitoneal) in CD2F1 (CDF1) mice
Settings: endpoint: median survival time, higher = longer survival
Procedure, shortened: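 Mice carrying the transplanted tumor received test compound or vehicle. Survival was recorded in each group, and the value is the treated-group measurement divided by that of the vehicle-treated control group.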

[1] = dose: 1.5 mg/kg/injection, schedule: Q01DX009 (ip), vehicle: Klucel (hydroxypropylcellulose) (HPC)
[2] = dose: 50.0 mg/kg/injection, schedule: Q01DX009 (ip), vehicle: Klucel (hydroxypropylcellulose) (HPC)
[3] = dose: 100.0 mg/kg/injection, schedule: Q01DX009 (ip), vehicle: Klucel (hydroxypropylcellulose) (HPC)
[4] = dose: 200.0 mg/kg/injection, schedule: Q01DX009 (ip), vehicle: Klucel (hydroxypropylcellulose) (HPC)
[5] = dose: 50.0 mg/kg/injection, schedule: Q01DX005 (ip), vehicle: saline with Tween-80
[6] = dose: 100.0 mg/kg/injection, schedule: Q01DX005 (ip), vehicle: saline with Tween-80
[7] = dose: 200.0 mg/kg/injection, schedule: Q01DX005 (ip), vehicle: saline with Tween-80
[8] = dose: 60.0 mg/kg/injection, schedule: Q01DX005 (ip), vehicle: saline with Tween-80
[9] = dose: 120.0 mg/kg/injection, schedule: Q01DX005 (ip), vehicle: saline with Tween-80
[10] = dose: 100.0 mg/kg/injection, schedule: Q01DX001 (ip), vehicle: saline with Tween-80
[11] = dose: 240.0 mg/kg/injection, schedule: Q01DX005 (ip), vehicle: saline with Tween-80
[12] = dose: 25.0 mg/kg/injection, schedule: Q04DX003 (ip), vehicle: saline with Tween-80
[13] = dose: 50.0 mg/kg/injection, schedule: Q04DX003 (ip), vehicle: saline with Tween-80
[14] = dose: 100.0 mg/kg/injection, schedule: Q04DX003 (ip), vehicle: saline with Tween-80
[15] = dose: 50.0 mg/kg/injection, schedule: Q01DX009 (ip), vehicle: saline with Tween-80
[16] = dose: 100.0 mg/kg/injection, schedule: Q01DX009 (ip), vehicle: saline with Tween-80
[17] = dose: 200.0 mg/kg/injection, schedule: Q01DX009 (ip), vehicle: saline with Tween-80

Measured: T/C

CCC12C=CCN3CCC4(c5cc(C6c7[nH]c8ccccc8c7CCN7CCCCC67)c(OC)cc5N(C)C4C(O)(C(=O)OC)C1OC(C)=O)C32 (stereo not given)
inactive: dose: 0.06 mg/kg/injection, schedule: Q01DX009 (ip), vehicle: Klucel (hydroxypropylcellulose) (HPC) 115 % of control | dose: 0.13 mg/kg/injection, schedule: Q01DX009 (ip), vehicle: Klucel (hydroxypropylcellulose) (HPC) 122 % of control | dose: 0.13 mg/kg/injection, schedule: Q04DX003 (ip), vehicle: water 95 % of control | dose: 0.25 mg/kg/injection, schedule: Q01DX009 (ip), vehicle: Klucel (hydroxypropylcellulose) (HPC) 123 % of control | dose: 0.25 mg/kg/injection, schedule: Q04DX003 (ip), vehicle: water 112 % of control | dose: 0.5 mg/kg/injection, schedule: Q04DX003 (ip), vehicle: water 113 % of control | dose: 0.67 mg/kg/injection, schedule: Q01DX009 (ip), vehicle: Klucel (hydroxypropylcellulose) (HPC) 103 % of control | dose: 1.0 mg/kg/injection, schedule: Q04DX003 (ip), vehicle: water 103 % of control | [1] 105 % of control | dose: 2.0 mg/kg/injection, schedule: Q04DX003 (ip), vehicle: water 91 % of control

Cc1cc(Cl)c2c(N(C)C)cccc2n1
inactive: dose: 50.0 mg/kg/injection, schedule: Q01DX009 (ip), vehicle: acid diluted with saline 106 % of control | dose: 100.0 mg/kg/injection, schedule: Q01DX009 (ip), vehicle: acid diluted with saline 93 % of control

Cc1ccc(S(=O)(=O)/N=C\[N-][n+]2ccccc2C)cc1
inactive: [2] 101 % of control | [3] 93 % of control | [4] 92 % of control

CC1(C)OC2OCC(N=[N+]=[N-])C(O)C2O1 (stereo not given)
inactive: [5] 113 % of control | [6] 101 % of control | [7] 92 % of control

O=C(O)c1cc(N=C=S)ccc1-c1c2ccc(=O)cc-2oc2cc(O)ccc12
inactive: dose: 12.5 mg/kg/injection, schedule: Q01DX005 (ip), vehicle: saline + Tween-80 + alcohol 105 % of control | dose: 25.0 mg/kg/injection, schedule: Q01DX005 (ip), vehicle: saline + Tween-80 + alcohol 105 % of control | dose: 50.0 mg/kg/injection, schedule: Q01DX005 (ip), vehicle: saline + Tween-80 + alcohol 105 % of control | [8] 114 % of control | [9] 115 % of control

Cc1ccc2[nH]c3c(c2c1)C(=O)CCC3
inactive: dose: 50.0 mg/kg/injection, schedule: Q01DX005 (ip), vehicle: Klucel (hydroxypropylcellulose) (HPC) 97 % of control | dose: 100.0 mg/kg/injection, schedule: Q01DX005 (ip), vehicle: Klucel (hydroxypropylcellulose) (HPC) 95 % of control | dose: 200.0 mg/kg/injection, schedule: Q01DX005 (ip), vehicle: Klucel (hydroxypropylcellulose) (HPC) 92 % of control

CCCCCN(CCCCC)CCCCCCCCN1CCCc2ccccc21
inactive: [5] 106 % of control | [6] 108 % of control | [7] 117 % of control

O=c1[nH]c2c(Cl)c(Cl)c(Cl)c(Cl)c2[nH]c1=O
inactive: [5] 90 % of control | [6] 87 % of control

O=C1OC(c2cccc(Cl)c2)=N/C1=C\C=C/c1ccccc1
inactive: dose: 50.0 mg/kg/injection, schedule: Q01DX009 (ip), vehicle: suspension in saline 93 % of control | dose: 100.0 mg/kg/injection, schedule: Q01DX009 (ip), vehicle: suspension in saline 93 % of control

NC(=O)Cc1[nH]ccc1C(=O)O
inactive: [10] 103 % of control | dose: 200.0 mg/kg/injection, schedule: Q01DX001 (ip), vehicle: saline with Tween-80 97 % of control | dose: 400.0 mg/kg/injection, schedule: Q01DX001 (ip), vehicle: saline with Tween-80 97 % of control

O=S(=O)(Nc1ccccc1Cl)c1ccc(F)cc1
inactive: [8] 96 % of control | [9] 104 % of control | [11] 100 % of control

O=CCC1CC2CCCCN2O1 (stereo not given)
inactive: [12] 102 % of control | [13] 101 % of control | [14] 108 % of control

C[CH2][Pb]([CH2]C)([CH2]C)[n]1cnc2ccccc21
inactive: dose: 0.75 mg/kg/injection, schedule: Q01DX009 (ip), vehicle: Klucel (hydroxypropylcellulose) (HPC) 99 % of control | [1] 118 % of control | dose: 3.0 mg/kg/injection, schedule: Q01DX009 (ip), vehicle: Klucel (hydroxypropylcellulose) (HPC) 118 % of control | dose: 3.12 mg/kg/injection, schedule: Q04DX003 (ip), vehicle: Klucel (hydroxypropylcellulose) (HPC) 96 % of control | dose: 6.25 mg/kg/injection, schedule: Q04DX003 (ip), vehicle: Klucel (hydroxypropylcellulose) (HPC) 114 % of control | dose: 12.5 mg/kg/injection, schedule: Q04DX003 (ip), vehicle: Klucel (hydroxypropylcellulose) (HPC) 92 % of control

O=S1(=O)C=C(c2cccs2)C1
inactive: [12] 97 % of control | [13] 109 % of control | [14] 105 % of control and 112 % of control

CC(=O)c1c(C)oc(C)c1-c1ccc2c(c1)OCO2
inactive: dose: 60.0 mg/kg/injection, schedule: Q01DX005 (ip), vehicle: Klucel (hydroxypropylcellulose) (HPC) 108 % of control | dose: 120.0 mg/kg/injection, schedule: Q01DX005 (ip), vehicle: Klucel (hydroxypropylcellulose) (HPC) 103 % of control | dose: 240.0 mg/kg/injection, schedule: Q01DX005 (ip), vehicle: Klucel (hydroxypropylcellulose) (HPC) 104 % of control

OC(c1cc2ccc(C(F)(F)F)cc2c2cc(C(F)(F)F)ccc12)C1CCCCN1 (stereo not given)
inactive: dose: 12.5 mg/kg/injection, schedule: Q01DX009 (ip), vehicle: saline with Tween-80 102 % of control and 107 % of control | dose: 25.0 mg/kg/injection, schedule: Q01DX009 (ip), vehicle: saline with Tween-80 100 % of control and 102 % of control

Cn1cc([N+](=O)[O-])c([N+](=O)[O-])c1
inactive: [15] 102 % of control | [16] 103 % of control | [17] 102 % of control

C=CCn1/c(=N\NC(=O)c2ccncc2)sc2ccccc21
inactive: dose: 6.25 mg/kg/injection, schedule: Q01DX009 (ip), vehicle: Klucel (hydroxypropylcellulose) (HPC) 114 % of control | dose: 12.5 mg/kg/injection, schedule: Q01DX009 (ip), vehicle: Klucel (hydroxypropylcellulose) (HPC) 100 % of control | dose: 25.0 mg/kg/injection, schedule: Q01DX009 (ip), vehicle: Klucel (hydroxypropylcellulose) (HPC) 103 % of control

CN(C)C(=S)c1cccc2ccccc12
inactive: [15] 86 % of control | [16] 96 % of control | [17] 114 % of control

CC(=O)NCCSC(NC(=O)c1ccccc1)C(=O)O (stereo not given)
inactive: [2] 90 % of control | [3] 101 % of control | [4] 98 % of control

O=C1C(Cl)=C(NC(CO)(CO)CO)C(=O)c2ccccc21
inactive: dose: 25.0 mg/kg/injection, schedule: Q01DX001 (ip), vehicle: saline with Tween-80 92 % of control | dose: 50.0 mg/kg/injection, schedule: Q01DX001 (ip), vehicle: saline with Tween-80 93 % of control | [10] 101 % of control

[N-]=[N+]=NCc1cnnn1C1OC(CO)C(O)C1O (stereo not given)
inactive: dose: 60.0 mg/kg/injection, schedule: Q01DX005 (ip), vehicle: saline 102 % of control | dose: 120.0 mg/kg/injection, schedule: Q01DX005 (ip), vehicle: saline 115 % of control | dose: 240.0 mg/kg/injection, schedule: Q01DX005 (ip), vehicle: saline 99 % of control

NC(CCS(=O)(=O)NCc1ccc(S(=O)(=O)F)cc1)C(=O)O (stereo not given)
inactive: dose: 12.5 mg/kg/injection, schedule: Q01DX009 (ip), vehicle: other 104 % of control | dose: 25.0 mg/kg/injection, schedule: Q01DX009 (ip), vehicle: other 103 % of control | dose: 50.0 mg/kg/injection, schedule: Q01DX009 (ip), vehicle: other 100 % of control | dose: 100.0 mg/kg/injection, schedule: Q01DX009 (ip), vehicle: other 96 % of control | dose: 200.0 mg/kg/injection, schedule: Q01DX009 (ip), vehicle: other 88 % of control

O=C1COC(C(=O)c2ccccc2)C(=O)N1 (stereo not given)
inactive: [8] 98 % of control | [9] 95 % of control | [11] 95 % of control

CCCCC/C=C/C/C=C\CCCCCCCC(=O)NC(Cc1ccc(C)cc1)c1ccccc1 (stereo not given)
inactive: [15] 98 % of control | [16] 100 % of control | [17] 100 % of control
